Data published in patent US8637681B2, “Pyrrolyl substituted dihydroindol-2-one derivatives, preparation methods and uses thereof” (Qilu Pharmaceutical Co., Ltd., priority 2010, dated 2014).

Assays:
[1] = test system: human colon cancer HT 29 transplanted tumor; assay: Nude mice transplanted tumor test; assay type: in vivo, female Balb/cA nude mice; set-up: key to d21 Vave ± SD (average tumor volume): tumor volume TV = ½×a×b² (a, b = major, minor diameter), in mm³; conditions: for Dead animal number / inhibition in vivo at 80 mg/kg / d21 Wave ± SD (average bodyweight of nude mice) / d21 Vave ± SD (average tumor volume) / d21 RTV ± SD (relative tumor volume): 80 mg/kg intragastrically each day for 20 days; for Dead animal number: dead/total animals; for inhibition in vivo at 80 mg/kg: Mus musculus, HT-29, po, 504 h, (1−T/C)×100%, read-out: Tumor inhibition rate d21 (%); for inhibition in vivo at 80 mg/kg / d21 Wave ± SD (average bodyweight of nude mice) / d21 Vave ± SD (average tumor volume) / d21 RTV ± SD (relative tumor volume): d21; for d0 Wave ± SD (average bodyweight of nude mice): d0, at grouping before administration (baseline); for d21 Vave ± SD (average tumor volume): HT 29 in nude mice, in mm³ (unit assumed); for d21 RTV ± SD (relative tumor volume): RTV=Vt/V0
Procedure: The nude mice transplanted tumor test used female Balb/cA nude mice, and tumor strains were human colon cancer HT 29 strains.
Under sterile condition, eugonic tumor tissues stage were cut into pieces of about 1.5 mm^3, and inoculated at right axillary fossa of the nude mice. The transplanted tumor diameter was measured by vernier caliper, and the animals were randomly grouped after the tumors grew to about 120 mm^3. The positive control group and the compounds group in a dosage of 80 mg/kg were administered intragastrically each day for consecutive 20 days. The negative control group was given equivalent amount of injection water containing 0.1% Tween 80. Tumor diameters and the bodyweight of mice were measured 2-3 times every week. The evaluation indexes observed in the test include relative tumor proliferation rate, bodyweight and general states. The formulation for calculating tumor volume (TV) is: TV=½×a×b^2, wherein a, b represent major diameter and minor diameter of tumor; Relative tumor volume (RTV) was calculated according the results of measurement by the following formula: RTV=Vt/V0, wherein V0 is tumor volume measured when dividing groups for administration, and Vt is tumor volume measured after each administration.

[2] = test system: arterial ring angiogenesis in rats; assay: Inhibitory actions on arterial ring angiogenesis in rats; assay type: cell-based; conditions: Rattus norvegicus, area covered by micrangiums vs control well, read-out: Inhibitory rate (%); for inhibition at 0.2 µg/mL: 0.2 μg/ml; for inhibition at 1 µg/mL: 1 μg/ml; for inhibition at 5 µg/mL: 5 μg/ml
Procedure: This experiment was conducted by referring to the method described by R. F. Nicosia et al (Nicosia, R. F., et al. Am J Pathol., 1997, 151, 1379-1386). Rats were executed by cervical dislocation. The thoracic aorta was carefully separated, and placed in a container with physiological saline. The excess tissues were carefully cut off. The blood vessels were cut with a pair of ophthalmic scissors to form 1 mm thick vascular ring slices. To a pre-cooled 96-well cell culture plate, one separated vascular ring was placed in the center of each well. 70 μl of pre-molten Matrigel was carefully added to cover the vascular ring, which was incubated at 37° C. for 1 h so as to solidify it. […] The sample was placed in incubator for conventional culture, and each compound was tested at least in two repeated wells, and each test was repeated twice. […] The fresh culture medium was replaced every 3 days, and the drug was changed at the same time. The survival status of vascular rings was observed under microscope, and pictures were taken at the same time. Image Pro Plus software was used to calculate the area covered by micrangiums. The average inhibition rate was calculated by using the formula: inhibition rate (%)=(area of control well−area of drug well)/area of control well×100%.

[3] = Cytotoxicity test (SRB), A431; assay type: cell-based; conditions: human, A431 skin cancer cells
Procedure: (§1) Cytotoxicity of the compounds of the present invention was tested with human non-small cell lung cancer cells A549, human cervical cancer Hela cells, human skin cancer cells A431. The test was performed by referring to the method described by Rusnak et al (Rusnak D. W., et al., Cell Prolif., 2007, 40, 580-94).
(§2) In Dulbecco's Modified Eagle Medium (DMEM) comprising 10% fetal bovine serum, 2 mM glutamine and non-essential amino acids, cells were cultured at 37° C. in 5% CO2 cell incubator. Trypsin/ethylenediamine tetraacetic acid (EDTA) were used to harvest cells in cell culture bottle. The cells were added to a 96-well cell culture plate, 4000/well (0.1 ml medium), adhering wall overnight, 0.1 ml of the diluted solution of the compounds to be tested was added, the final concentration of DMSO was 0.25%. The cell culture plate was incubated at 37° C., 5% CO2 conditions for 72 h. The change of cellular morphology was observed under microscope, and then 50 μl of 50% (mass/volume) trichloroacetic acid (TCA) was added to each well to fix cells. The final concentration of TCA was 10%. It stood for 5 min, than was placed in 4° C. refrigerator for 1 h, the wells of the culture plate were washed with deionized water for 5 times to remove TCA, drained, dried in air until no wet trace was observed. 100 μl of 0.4% (mass/volume) SRB was added to each well, stood at room temperature for 10 min. The liquid in each well was discarded, and then the wells were washed with 1% acetic acid for 5 times, dried in air, extracted with 150 μl of 10 mM Tris base (trihydroxymethylaminomethane, pH 10.5). The absorption at a wavelength of 540 nm was measured. The IC50 (μM) of the compound was calculated using Logit method.

[4] = Cytotoxicity test (SRB), A549; assay type: cell-based; conditions: human, A549 non-small cell lung cancer cells
Procedure: as §1, §2

[5] = Cytotoxicity test (SRB), Hela; assay type: cell-based; conditions: human, Hela cervical cancer cells
Procedure: Cytotoxicity of the compounds of the present invention was tested with human non-small cell lung cancer cells A549, human cervical cancer Hela cells, human skin cancer cells A431. The test was performed by referring to the method described by Rusnak et al (Rusnak D. W., et al., Cell Prolif., 2007, 40, 580-94). […] Trypsin/ethylenediamine tetraacetic acid (EDTA) were used to harvest cells in cell culture bottle. The cells were added to a 96-well cell culture plate, 4000/well (0.1 ml medium), adhering wall overnight, 0.1 ml of the diluted solution of the compounds to be tested was added, the final concentration of DMSO was 0.25%. The cell culture plate was incubated at 37° C., 5% CO2 conditions for 72 h. […] The absorption at a wavelength of 540 nm was measured. The IC50 (μM) of the compound was calculated using Logit method.

| SMILES | Dead animal number [1] | inhibition in vivo at 80 mg/kg [1] [%] | d0 Wave ± SD (average bodyweight of nude mice) [1] | d21 Wave ± SD (average bodyweight of nude mice) [1] | d21 Vave ± SD (average tumor volume) [1] | d21 RTV ± SD (relative tumor volume) [1] | inhibition at 0.2 µg/mL [2] [%] | inhibition at 1 µg/mL [2] [%] | inhibition at 5 µg/mL [2] [%] | IC50 at 72 h [3] [µM] | IC50 at 72 h [4] [µM] | IC50 at 72 h [5] [µM] | Activity of inhibiting HT-29 transplanted tumor in vivo (in words) ([1]; 80 mg/kg, compared with positive control Sunitinib) |
| --- | --- | --- | --- | --- | --- | --- | --- | --- | --- | --- | --- | --- | --- |
| Cc1[nH]c(/C=C2\C(=O)Nc3ccc(F)cc32)c(C)c1NC(=O)CN(C)C [Compound 22, N-{5-[5-fluoro-2-oxo-1,2-dihydro-indol-(3Z)-ylidenemethyl]-2,4-dimethyl-1H-pyrrol-3-yl}-2-(N,N-dimethylamino)acetamide] | 0/6 | 88.1 | 19.7 ± 0.38 | 20.1 ± 0.35 | 104.6 ± 43.6 | 0.86 ± 0.54 | 90 | 100 | 100 | > 30 | > 30 | > 30 |  |
| Cc1[nH]c(/C=C2\C(=O)Nc3ccc(F)cc32)c(C)c1NC(=O)/C=C/CN(C)C [Compound 4, N-{5-[5-fluoro-2-oxo-1,2-dihydro-indol-(3Z)-ylidenemethyl]-2,4-dimethyl-1H-pyrrol-3-yl}-4-(N,N-dimethylamino)-(2E)-crotonamide] | 0/6 | 91 | 19.6 ± 0.22 | 19.6 ± 0.85 | 80.0 ± 33.2 | 0.65 ± 0.28 | 98 | 100 | 100 | > 30 | > 30 | > 30 | inhibitory activity comparable to the positive control Sunitinib |
| CCN1CCN(CC(=O)Nc2c(C)[nH]c(/C=C3\C(=O)Nc4ccc(F)cc43)c2C)CC1 [Compound 18, N-{5-[5-fluoro-2-oxo-1,2-dihydro-indol-(3Z)-ylidenemethyl]-2,4-dimethyl-1H-pyrrol-3-yl}-2-(4-ethylpiperazin-1-yl)acetamide] | 0/6 | 90.1 | 19.1 ± 0.48 | 18.9 ± 0.69 | 86.2 ± 45.3 | 0.73 ± 0.45 | 99 | 100 | 100 | > 30 | > 30 | 4.15 |  |
| CCN(CC)CC(=O)Nc1c(C)[nH]c(/C=C2\C(=O)Nc3ccc(NS(C)(=O)=O)cc32)c1C [Compound 25, N-{5-[5-methylsulfonylamino-2-oxo-1,2-dihydro-indol-(3Z)-ylidenemethyl]-2,4-dimethyl-1H-pyrrol-3-yl}-2-(N,N-diethylamino)acetamide] |  |  |  |  |  |  | 89 | 100 | 100 | 6.57 | > 30 | > 30 |  |
| Cc1[nH]c(/C=C2\C(=O)Nc3ccc(F)cc32)c(C)c1NC(=O)CN1CCCCC1 [Compound 16, N-{5-[5-fluoro-2-oxo-1,2-dihydro-indol-(3Z)-ylidenemethyl]-2,4-dimethyl-1H-pyrrol-3-yl}-2-(piperidin-1-yl)acetamide] | 0/6 | 68.7 | 19.5 ± 0.46 | 18.5 ± 0.59 | 268.4 ± 33.8 | 2.25 ± 0.37 | 91 | 100 | 100 | 6.25 | > 30 | > 30 |  |
| Cc1[nH]c(/C=C2\C(=O)Nc3ccc(F)cc32)c(C)c1NC(=O)CCN1CCCC1 [Compound 14, N-{5-[5-fluoro-2-oxo-1,2-dihydro-indol-(3Z)-ylidenemethyl]-2,4-dimethyl-1H-pyrrol-3-yl}-3-(tetrahydropyrrol-1-yl)propionamide] |  |  |  |  |  |  | 88 | 100 | 100 | > 30 | > 30 | > 30 |  |
| CCN(CC)CC(=O)Nc1c(C)[nH]c(/C=C2\C(=O)Nc3cc(C)ccc32)c1C [Compound 27, N-{5-[6-methyl-2-oxo-1,2-dihydro-indol-(3Z)-ylidenemethyl]-2,4-dimethyl-1H-pyrrol-3-yl}-2-(N,N-diethylamino)acetamide] |  |  |  |  |  |  | 78 | 95 | 100 | > 30 | > 30 | > 30 |  |
| Cc1[nH]c(/C=C2\C(=O)Nc3ccc(F)cc32)c(C)c1NC(=O)CN1CCN(C)CC1 [Compound 15, N-{5-[5-fluoro-2-oxo-1,2-dihydro-indol-(3Z)-ylidenemethyl]-2,4-dimethyl-1H-pyrrol-3-yl}-2-(4-methylpiperazin-1-yl)acetamide] |  |  |  |  |  |  | 89 | 100 | 100 | > 30 | > 30 | > 30 |  |
| CCN(CC)CC(=O)Nc1c(C)[nH]c(/C=C2\C(=O)Nc3cc(OC)ccc32)c1C [Compound 23, N-{5-[6-methoxy-2-oxo-1,2-dihydro-indol-(3Z)-ylidenemethyl]-2,4-dimethyl-1H-pyrrol-3-yl}-2-(N,N-diethylamino)acetamide] |  |  |  |  |  |  | 90 | 100 | 100 | > 30 | > 30 | > 30 |  |
